How the values were obtained:
corn = assay: Test A postemergence; type: in vivo, Zea mays; settings: for Plant response rating, Corn: 0 to 100 scale, 0 no effect, 100 complete control
Procedure, shortened: (§1)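 Scoring: eye-based comparison with untreated controls, 0 for no effect through 100 for complete control, at about day 10. Treatments: directed soil spray preemergence; foliar spray postemergence on 2–10 cm plants at the one- to two-leaf stage. Medium: loam soil with sand.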

Italian ryegrass [1] = assay: Test A preemergence; type: in vivo, Lolium multiflorum; settings: for Plant response rating, Ryegrass, Italian: 0 to 100 scale where 0 is no effect and 100 is complete control
Procedure, shortened: as §1

blackgrass = assay: Test A postemergence; type: in vivo, Alopecurus myosuroides; settings: for Plant response rating, Blackgrass: 0 to 100 scale, 0 no effect, 100 complete control
Procedure, shortened: as §1

barnyardgrass [2] = assay: Test A preemergence; type: in vivo, Echinochloa crus-galli; settings: for Plant response rating, Barnyardgrass: 0 to 100 scale where 0 is no effect and 100 is complete control
Procedure, shortened: as §1

rice = assay: Test B flooded paddy test; type: in vivo, Oryza sativa; settings: Flood, 250 g ai/ha; 0 to 100 scale where 0 is no effect and 100 is complete control
Procedure, shortened: (§2)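 Visual ratings on a 0 to 100 scale, where 100 means complete control, compared treated plants with controls after 13 to 15 days in a greenhouse. Treatment went into paddy water 3 cm deep over the soil, applied to plants at the 2-leaf stage.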

pigweed [3] = assay: Test A postemergence; type: in vivo, Amaranthus retroflexus; settings: for Plant response rating, Pigweed: 0 to 100 scale, 0 no effect, 100 complete control
Procedure, shortened: as §1

barnyardgrass [4] = assay: Test A postemergence; type: in vivo, Echinochloa crus-galli; settings: for Plant response rating, Barnyardgrass: 0 to 100 scale, 0 no effect, 100 complete control
Procedure, shortened: as §1

giant foxtail [5] = assay: Test A preemergence; type: in vivo, Setaria faberii; settings: for Plant response rating, Foxtail, Giant: 0 to 100 scale where 0 is no effect and 100 is complete control
Procedure, shortened: as §1

giant foxtail [6] = assay: Test A postemergence; type: in vivo, Setaria faberii; settings: for Plant response rating, Foxtail, Giant: 0 to 100 scale, 0 no effect, 100 complete control
Procedure, shortened: as §1

sedge, umbrella = assay: Test B flooded paddy test; type: in vivo, Cyperus difformis; settings: Flood, 250 g ai/ha; 0 to 100 scale where 0 is no effect and 100 is complete control
Procedure, shortened: as §2

kochia [7] = assay: Test A postemergence; type: in vivo, Kochia scoparia; settings: for Plant response rating, Kochia: 0 to 100 scale, 0 no effect, 100 complete control
Procedure, shortened: as §1

ragweed [8] = assay: Test A preemergence; type: in vivo, Ambrosia elatior; settings: for Plant response rating, Ragweed: 0 to 100 scale where 0 is no effect and 100 is complete control
Procedure, shortened: as §1

barnyardgrass [9] = assay: Test B flooded paddy test; type: in vivo, Echinochloa crus-galli; settings: Flood, 250 g ai/ha; 0 to 100 scale where 0 is no effect and 100 is complete control
Procedure, shortened: as §2

ragweed [10] = assay: Test A postemergence; type: in vivo, Ambrosia elatior; settings: for Plant response rating, Ragweed: 0 to 100 scale, 0 no effect, 100 complete control
Procedure, shortened: as §1

Italian ryegrass [11] = assay: Test A postemergence; type: in vivo, Lolium multiflorum; settings: for Plant response rating, Ryegrass, Italian: 0 to 100 scale, 0 no effect, 100 complete control
Procedure, shortened: as §1

Heteranthera limosa = assay: Test B flooded paddy test; type: in vivo; settings: Flood, 250 g ai/ha; 0 to 100 scale where 0 is no effect and 100 is complete control
Procedure, shortened: as §2

kochia [12] = assay: Test A preemergence; type: in vivo, Kochia scoparia; settings: for Plant response rating, Kochia: 0 to 100 scale where 0 is no effect and 100 is complete control
Procedure, shortened: as §1

wheat = assay: Test A postemergence; type: in vivo, Triticum aestivum; settings: for Plant response rating, Wheat: 0 to 100 scale, 0 no effect, 100 complete control
Procedure, shortened: as §1

pigweed [13] = assay: Test A preemergence; type: in vivo, Amaranthus retroflexus; settings: for Plant response rating, Pigweed: 0 to 100 scale where 0 is no effect and 100 is complete control
Procedure, shortened: as §1

galium = assay: Test A postemergence; type: in vivo, Galium aparine; settings: for Plant response rating, Galium: 0 to 100 scale, 0 no effect, 100 complete control
Procedure, shortened: as §1

[14] = 125 g ai/ha, 0 to 100 scale where 0 is no effect and 100 is complete control
[15] = 31 g ai/ha, visual, approximately 10 days

Compound	Plant response rating, Corn (corn; 31 g ai/ha)	Plant response rating, Ryegrass, Italian (Italian ryegrass [1]; [15])	Plant response rating, Blackgrass (blackgrass; 31 g ai/ha)	Plant response rating, Barnyardgrass (barnyardgrass [2]; [15])	Plant response rating, Rice (rice)	Plant response rating, Pigweed (pigweed [3]; 31 g ai/ha)	Plant response rating, Barnyardgrass (barnyardgrass [4]; 31 g ai/ha)	Plant response rating, Foxtail, Giant (giant foxtail [5]; [15])	Plant response rating, Foxtail, Giant (giant foxtail [6]; 31 g ai/ha)	Plant response rating, Sedge, Umbrella (sedge, umbrella)	Plant response rating, Kochia (kochia [7]; 31 g ai/ha)	Plant response rating, Ragweed (ragweed [8]; [15])	Plant response rating, Barnyardgrass (barnyardgrass [9])	Plant response rating, Ragweed (ragweed [10]; 31 g ai/ha)	Plant response rating, Ryegrass, Italian (Italian ryegrass [11]; 31 g ai/ha)	Plant response rating, Ducksalad (Heteranthera limosa)	Plant response rating, Kochia (kochia [12]; [15])	Plant response rating, Wheat (wheat; 31 g ai/ha)	Plant response rating, Pigweed (pigweed [13]; [15])	Plant response rating, Galium (galium; 31 g ai/ha)	also measured
CC(C)Oc1cnn(-c2c(C#N)cccc2Oc2ncc(Cl)cn2)c1 [Compound 149]	0	0	50	40	0	60	20	60	20	65	60	0	0	50	0	70	70	0	100	70	Corn plant response rating (corn; [14]): 20; Plant response rating, Ryegrass, Italian (Italian ryegrass [1]; 125 g ai/ha): 20; Blackgrass plant response rating (blackgrass; [14]): 80; Plant response rating, Barnyardgrass (barnyardgrass [2]; 125 g ai/ha): 90; Pigweed plant response rating (pigweed [3]; [14]): 100; Barnyardgrass plant response rating (barnyardgrass [4]; [14]): 70; Plant response rating, Foxtail, Giant (giant foxtail [5]; 125 g ai/ha): 100; Foxtail, Giant plant response rating (giant foxtail [6]; [14]): 90; Kochia plant response rating (kochia [7]; [14]): 70; Plant response rating, Ragweed (ragweed [8]; 125 g ai/ha): 60; Ragweed plant response rating (ragweed [10]; [14]): 80; Ryegrass, Italian plant response rating (Italian ryegrass [11]; [14]): 30; Plant response rating, Kochia (kochia [12]; 125 g ai/ha): 100; Wheat plant response rating (wheat; [14]): 0; Plant response rating, Pigweed (pigweed [13]; 125 g ai/ha): 100; Galium plant response rating (galium; [14]): 100
FC(F)(F)c1cnn(-c2c(Oc3ncc(Cl)cn3)cccc2-c2ncon2)c1 [Compound 279]	10	0	10	0	50	50	0	40	10	90	40	0	75	20	0	90	40	0	90	20	Plant response rating, Corn (corn; 125 g ai/ha): 10; Ryegrass, Italian plant response rating (0 to 100 scale) (Italian ryegrass [1]; 125 g ai/ha): 0; Plant response rating, Blackgrass (blackgrass; 125 g ai/ha): 40; Barnyardgrass plant response rating (0 to 100 scale, 0 is no effect, 100 is complete control) (barnyardgrass [2]; 125 g ai/ha): 10; Plant response rating, Pigweed (pigweed [3]; 125 g ai/ha): 80; Plant response rating, Barnyardgrass (barnyardgrass [4]; 125 g ai/ha): 30; Foxtail, Giant plant response rating (0 to 100 scale) (giant foxtail [5]; 125 g ai/ha): 50; Plant response rating, Foxtail, Giant (giant foxtail [6]; 125 g ai/ha): 50; Plant response rating, Kochia (kochia [7]; 125 g ai/ha): 90; Ragweed plant response rating (0 to 100 scale) (ragweed [8]; 125 g ai/ha): 10; Plant response rating, Ragweed (ragweed [10]; 125 g ai/ha): 40; Plant response rating, Ryegrass, Italian (Italian ryegrass [11]; 125 g ai/ha): 50; Kochia plant response rating (0 to 100 scale) (kochia [12]; 125 g ai/ha): 90; Plant response rating, Wheat (wheat; 125 g ai/ha): 30; Pigweed plant response rating (0 to 100 scale) (pigweed [13]; 125 g ai/ha): 100; Plant response rating, Galium (galium; 125 g ai/ha): 80
Cc1cc(C(F)(F)F)nn1-c1ccccc1Oc1ncc(Cl)cn1 [Compound 266]	0	0	0	0	0	0	0	0	0	0	0	0	0	0	0	0	0	0	0	0	Plant response rating, Corn (corn; 125 g ai/ha): 0; Ryegrass, Italian plant response rating (0 to 100 scale) (Italian ryegrass [1]; 125 g ai/ha): 0; Plant response rating, Blackgrass (blackgrass; 125 g ai/ha): 0; Barnyardgrass plant response rating (0 to 100 scale, 0 is no effect, 100 is complete control) (barnyardgrass [2]; 125 g ai/ha): 0; Plant response rating, Pigweed (pigweed [3]; 125 g ai/ha): 0; Plant response rating, Barnyardgrass (barnyardgrass [4]; 125 g ai/ha): 0; Foxtail, Giant plant response rating (0 to 100 scale) (giant foxtail [5]; 125 g ai/ha): 0; Plant response rating, Foxtail, Giant (giant foxtail [6]; 125 g ai/ha): 0; Plant response rating, Kochia (kochia [7]; 125 g ai/ha): 0; Ragweed plant response rating (0 to 100 scale) (ragweed [8]; 125 g ai/ha): 0; Plant response rating, Ragweed (ragweed [10]; 125 g ai/ha): 0; Plant response rating, Ryegrass, Italian (Italian ryegrass [11]; 125 g ai/ha): 0; Kochia plant response rating (0 to 100 scale) (kochia [12]; 125 g ai/ha): 0; Plant response rating, Wheat (wheat; 125 g ai/ha): 0; Pigweed plant response rating (0 to 100 scale) (pigweed [13]; 125 g ai/ha): 0; Plant response rating, Galium (galium; 125 g ai/ha): 0
